Laboratory results taken from ChEMBL document CHEMBL5338715, “Identification of (S)-1-(2-(2,4-difluorophenyl)-4-oxothiazolidin-3-yl)-3-(4-((7-(3-(4-ethylpiperazin-1-yl)propoxy)-6-methoxyquinolin-4-yl)oxy)-3,5-difluorophenyl)urea as a potential anti-colorectal cancer agent” (Eur J Med Chem, 2022).
One block for each molecule: values may come before it. Calls of active or inactive are those of the source. No cut-off for these calls is given here.

Experiments:
[1] = system: HCT-116; experiment: cells; conditions: Homo sapiens
[2] = system: HT-29; experiment: cells; conditions: Homo sapiens
[3] = system: BaF3; experiment: cells; conditions: Mus musculus, BaF3, 72 h
[4] = system: BaF3; experiment: cells; conditions: Mus musculus, BaF3, 72 h; remark: listed apart in the source
[5] = system: COLO 205; experiment: Induction of apoptosis in human COLO 205 cells assessed as viable cells at 0.037 uM incubated for 72 hrs by Annexin FITC-A staining based flow cytometry (reference value: 78.7 %); type: functional; conditions: read-out: Activity
[6] = system: COLO 205; experiment: Induction of apoptosis in human COLO 205 cells assessed as late apoptotic cells at […] incubated for 72 hrs by Annexin FITC-A staining based flow cytometry (reference value: 9.15 %); type: functional; conditions: dose 0.11 µM
[7] = system: COLO 205; experiment: Induction of apoptosis in human COLO 205 cells assessed as necrotic cells at 1 uM incubated for 72 hrs by Annexin FITC-A staining based flow cytometry (reference value: 9.65 %); type: functional
[8] = system: COLO 205; experiment: Induction of apoptosis in human COLO 205 cells assessed as late apoptotic cells at 1 uM incubated for 72 hrs by Annexin FITC-A staining based flow cytometry (reference value: 9.15 %); type: functional
[9] = system: COLO 205; experiment: Induction of apoptosis in human COLO 205 cells assessed as necrotic cells at […] incubated for 72 hrs by Annexin FITC-A staining based flow cytometry (reference value: 9.65 %); type: functional; conditions: dose 0.11 µM
[10] = system: COLO 205; experiment: Induction of apoptosis in human COLO 205 cells assessed as viable cells at 1 uM incubated for 72 hrs by Annexin FITC-A staining based flow cytometry (reference value: 78.7 %); type: functional; conditions: read-out: Activity
[11] = system: COLO 205; experiment: Induction of apoptosis in human COLO 205 cells assessed as late apoptotic cells at 0.33 uM incubated for 72 hrs by Annexin FITC-A staining based flow cytometry (reference value: 9.15 %); type: functional
[12] = system: COLO 205; experiment: Induction of apoptosis in human COLO 205 cells assessed as viable cells at […] incubated for 72 hrs by Annexin FITC-A staining based flow cytometry (reference value: 78.7 %); type: functional; conditions: dose 0.11 µM, read-out: Activity
[13] = system: COLO 205; experiment: Induction of apoptosis in human COLO 205 cells assessed as necrotic cells at 0.037 uM incubated for 72 hrs by Annexin FITC-A staining based flow cytometry (reference value: 9.65 %); type: functional
[14] = system: COLO 205; experiment: Induction of apoptosis in human COLO 205 cells assessed as early apoptotic cells at 1 uM incubated for 72 hrs by Annexin FITC-A staining based flow cytometry (reference value: 2.54 %); type: functional
[15] = system: COLO 205; experiment: Induction of cell death in human COLO 205 cells at 0.11 to 1 uM incubated for 24 hrs by flow cytometry; type: functional, cell-based; conditions: dose 0.11-1 µM
[16] = Metabolic stability in human liver microsomes assessed as half life at 1 uM measured upto 45 mins in presence of NADPH by LC-MS/MS analysis; type: ADME, Microsome
[17] = system: COLO 205; experiment: Induction of cell cycle arrest in human COLO 205 cells assessed as accumulation at S phase at 0.037 uM incubated for 24 hrs by flow cytometry (reference value: 40.8 %); type: functional
[18] = system: COLO 205; experiment: Induction of apoptosis in human COLO 205 cells assessed as early apoptotic cells at 0.33 uM incubated for 72 hrs by Annexin FITC-A staining based flow cytometry (reference value: 2.54 %); type: functional
[19] = system: COLO 205; experiment: Induction of apoptosis in human COLO 205 cells assessed as viable cells at 0.33 uM incubated for 72 hrs by Annexin FITC-A staining based flow cytometry (reference value: 78.7 %); type: functional; conditions: read-out: Activity
[20] = system: COLO 205; experiment: Induction of apoptosis in human COLO 205 cells assessed as early apoptotic cells at 0.037 uM incubated for 72 hrs by Annexin FITC-A staining based flow cytometry (reference value: 2.54 %); type: functional
[21] = system: COLO 205; experiment: cells; conditions: Homo sapiens
[22] = Cytotoxicity against human FHC cells assessed as cell growth inhibition by MTT assay; type: toxicity, cell-based
[23] = system: COLO 205; experiment: Induction of apoptosis in human COLO 205 cells assessed as necrotic cells at 0.33 uM incubated for 72 hrs by Annexin FITC-A staining based flow cytometry (reference value: 9.65 %); type: functional
[24] = system: COLO 205; experiment: Induction of cell cycle arrest in human COLO 205 cells assessed as accumulation at G2 phase at 0.037 uM incubated for 24 hrs by flow cytometry (reference value: 6.8 %); type: functional
[25] = system: COLO 205; experiment: Induction of apoptosis in human COLO 205 cells assessed as early apoptotic cells at […] incubated for 72 hrs by Annexin FITC-A staining based flow cytometry (reference value: 2.54 %); type: functional; conditions: dose 0.11 µM
[26] = system: COLO 205; experiment: Induction of cell cycle arrest in human COLO 205 cells assessed as accumulation at G1 phase at 0.037 uM incubated for 24 hrs by flow cytometry (reference value: 47.9 %); type: functional
[27] = system: COLO 205; experiment: Induction of apoptosis in human COLO 205 cells assessed as late apoptotic cells at 0.037 uM incubated for 72 hrs by Annexin FITC-A staining based flow cytometry (reference value: 9.15 %); type: functional
[28] = target: Hepatocyte growth factor receptor (Homo sapiens, UniProt P08581); experiment: Inhibition of c-Met (unknown origin)
[29] = Metabolic stability in human liver microsomes assessed as intrinsic clearance at 1 uM measured upto 45 mins in presence of NADPH by LC-MS/MS analysis; type: ADME, Microsome; conditions: read-out: CLH
[30] = Metabolic stability in human liver microsomes assessed as parent compound remaining at 1 uM measured after 45 mins in presence of NADPH by LC-MS/MS analysis; type: ADME, Microsome; conditions: read-out: Stability
[31] = system: LoVo; experiment: cells; conditions: Homo sapiens

Sequence of Hepatocyte growth factor receptor (P08581 whole entry): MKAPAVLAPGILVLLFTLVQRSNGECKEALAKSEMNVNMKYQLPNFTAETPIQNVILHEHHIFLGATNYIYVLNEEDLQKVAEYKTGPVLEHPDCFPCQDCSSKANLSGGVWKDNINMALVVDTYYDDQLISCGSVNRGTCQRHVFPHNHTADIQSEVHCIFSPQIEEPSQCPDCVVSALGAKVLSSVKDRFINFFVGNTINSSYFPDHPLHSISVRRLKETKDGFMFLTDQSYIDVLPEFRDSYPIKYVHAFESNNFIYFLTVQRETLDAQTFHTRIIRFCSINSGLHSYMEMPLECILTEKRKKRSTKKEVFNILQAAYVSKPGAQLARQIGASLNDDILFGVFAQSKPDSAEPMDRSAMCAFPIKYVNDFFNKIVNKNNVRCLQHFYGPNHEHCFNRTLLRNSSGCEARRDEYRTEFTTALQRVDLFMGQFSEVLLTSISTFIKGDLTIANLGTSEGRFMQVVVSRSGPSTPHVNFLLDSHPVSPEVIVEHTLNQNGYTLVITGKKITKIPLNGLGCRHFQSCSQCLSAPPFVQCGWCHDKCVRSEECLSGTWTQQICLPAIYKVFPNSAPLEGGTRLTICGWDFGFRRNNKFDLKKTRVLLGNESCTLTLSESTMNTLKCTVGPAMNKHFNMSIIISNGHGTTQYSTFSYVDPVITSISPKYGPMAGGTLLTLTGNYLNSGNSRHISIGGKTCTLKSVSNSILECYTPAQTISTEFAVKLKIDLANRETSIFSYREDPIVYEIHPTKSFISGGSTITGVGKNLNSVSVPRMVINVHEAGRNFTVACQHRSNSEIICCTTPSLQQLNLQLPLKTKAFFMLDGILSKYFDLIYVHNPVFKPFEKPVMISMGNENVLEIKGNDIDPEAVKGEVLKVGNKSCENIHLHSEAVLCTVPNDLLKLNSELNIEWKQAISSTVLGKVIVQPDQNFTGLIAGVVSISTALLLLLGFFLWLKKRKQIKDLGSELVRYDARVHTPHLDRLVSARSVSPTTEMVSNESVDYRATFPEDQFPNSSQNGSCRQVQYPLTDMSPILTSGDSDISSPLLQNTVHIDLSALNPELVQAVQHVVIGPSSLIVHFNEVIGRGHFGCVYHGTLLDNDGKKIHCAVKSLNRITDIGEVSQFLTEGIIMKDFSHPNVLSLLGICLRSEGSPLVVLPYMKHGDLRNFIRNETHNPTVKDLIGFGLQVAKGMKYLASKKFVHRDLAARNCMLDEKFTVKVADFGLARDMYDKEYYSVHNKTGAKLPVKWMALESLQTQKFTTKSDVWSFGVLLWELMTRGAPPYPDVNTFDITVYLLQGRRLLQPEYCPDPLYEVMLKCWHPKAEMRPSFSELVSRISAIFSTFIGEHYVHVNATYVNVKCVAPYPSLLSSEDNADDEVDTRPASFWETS

IC50 [1]: 3.5 µM
IC50 [2]: 8.6 µM
SMILES: CNC(=O)c1cc(Oc2ccc(NC(=O)Nc3ccc(Cl)c(C(F)(F)F)c3)c(F)c2)ccn1 [REGORAFENIB]

IC50 [3]: 0.84 µM
IC50 [4]: 0.46 µM
IC50 [1]: 0.64 µM
IC50 [2]: 0.22 µM
SMILES: CCN(CC)CCCOc1cc2nccc(Oc3ccc(NC(=O)NN4C(=O)CSC4c4c(F)cccc4F)cc3C)c2cc1OC (stereo unspecified)

half-life at 1 µM [16]: 2.83 h
IC50 [21]: 0.042 µM
SMILES: CCN1CCN(CCCOc2cc3nccc(Oc4c(F)cc(NC(=O)NN5C(=O)CS[C@H]5c5ccc(F)cc5F)cc4F)c3cc2OC)CC1
viability at 0.037 µM [5]: 63.4%
Activity [6]: 47.9%
Activity [7]: 13.9%
Activity [8]: 64.7%
Activity [9]: 22.7%
viability at 1 µM [10]: 14%
Activity [11]: 54.4%
viability at […] [12]: 23.1%
Activity [13]: 5.23%
Activity [14]: 7.41%
Activity [15]: Active
Activity [17]: 38.3%
Activity [18]: 5.19%
viability at 0.33 µM [19]: 15.4%
Activity [20]: 6.59%
IC50 [22]: > 10 µM
Activity [23]: 25%
Activity [24]: 6.2%
Activity [25]: 6.29%
Activity [26]: 51.4%
Activity [27]: 24.8%

IC50 [3]: 0.16 µM
IC50 [4]: 0.11 µM
IC50 [1]: 0.2 µM
IC50 [2]: 0.68 µM
SMILES: CCN(CC)CCCOc1cc2nccc(Oc3ccc(NC(=O)NN4C(=O)CSC4c4c(F)cccc4F)cc3OC)c2cc1OC (stereo unspecified)

IC50 [3]: 2.6 µM
IC50 [4]: 1.3 µM
IC50 [1]: 7.8 µM
IC50 [2]: 1.6 µM
SMILES: CCN(CC)CCCOc1cc2nccc(Oc3ccc(CC(=O)NN4C(=O)CSC4c4c(F)cccc4F)cc3)c2cc1OC (stereo unspecified)

IC50 [28]: 0.006 µM
SMILES: O=C(Nc1ccc(Oc2ccnc3c2CCN3)c(F)c1)c1c[nH]cc(-c2ccc(F)cc2)c1=O

IC50 [3]: 0.26 µM
IC50 [4]: 0.14 µM
IC50 [1]: 0.21 µM
IC50 [2]: 0.14 µM
SMILES: CCN1CCN(CCCOc2cc3nccc(Oc4c(F)cc(NC(=O)NN5C(=O)CSC5c5ccccc5)cc4F)c3cc2OC)CC1 (stereo unspecified)

IC50 [3]: 0.14 µM
IC50 [4]: 0.071 µM
IC50 [1]: 0.2 µM
IC50 [2]: 0.52 µM
SMILES: CCN1CCN(CCCOc2cc3nccc(Oc4c(F)cc(NC(=O)NN5C(=O)CSC5c5ccc(F)cc5)cc4F)c3cc2OC)CC1 (stereo unspecified)

IC50 [3]: 0.65 µM
IC50 [4]: 0.17 µM
IC50 [1]: > 10 µM
IC50 [2]: 4.1 µM
SMILES: COc1cc2nccc(Oc3c(F)cc(NC(=O)NN4C(=O)CSC4c4c(F)cccc4F)cc3F)c2cc1OC (stereo unspecified)

SMILES: O=c1ccc2ccc(O)cc2o1 [UMBELLIFERONE]
CLint scaled at 1 µM [29]: 289 mL/min/kg
half-life at 1 µM [16]: 0.1 h
remaining at 0.75 h, 1 µM [30]: 0.8%

IC50 [3]: 0.15 µM
IC50 [4]: 0.066 µM
IC50 [1]: 0.81 µM
IC50 [2]: 0.16 µM
SMILES: COc1cc2c(Oc3ccc(NC(=O)NN4C(=O)CSC4c4c(F)cccc4F)cc3)ccnc2cc1OCCCN1CCCC1 (stereo unspecified)

IC50 [31]: > 10 µM
IC50 [21]: > 10 µM
IC50 [1]: 0.8 µM
IC50 [2]: 1.5 µM
SMILES: CNC(=O)c1c(C)oc2cc(Oc3ncnc4cc(OC)c(OC)cc34)ccc12 [FRUQUINTINIB]
